Experiment [1] has as its target T1, B1R receptor of the rat (Rattus norvegicus, UniProt P97583).
T1 construct: host or cells: CHO K1 cells (Chinese hamster ovary), stably transfected
T1 sequence (P97583 1-337): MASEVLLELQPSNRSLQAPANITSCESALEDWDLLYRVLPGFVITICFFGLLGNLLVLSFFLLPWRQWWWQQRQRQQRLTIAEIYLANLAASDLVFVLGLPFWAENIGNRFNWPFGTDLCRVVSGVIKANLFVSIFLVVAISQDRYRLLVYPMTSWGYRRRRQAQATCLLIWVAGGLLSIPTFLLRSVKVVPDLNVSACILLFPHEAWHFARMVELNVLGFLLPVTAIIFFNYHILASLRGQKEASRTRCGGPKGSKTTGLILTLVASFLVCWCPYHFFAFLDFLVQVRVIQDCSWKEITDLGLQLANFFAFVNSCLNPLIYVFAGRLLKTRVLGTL
In words: Functional study on the bradykinin receptor 1 (B1R), FLIPR Ca2+ assay, rB1R cells. The class given is cell-based. The following applies: agonist Des-Arg9-bradykinin 100 nM, % inhibition compared with the maximum achievable inhibition; for B1R Antagonism, rat [10 μM] % Inhibition: test substance 10 μM, rB1R CHO K1 cells; for inhibition at 10 µM: CHO-K1, test substance 10 μM, read-out: B1R Antagonism, rat [10 μM] % Inhibition. In outline:
(§1)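 Readout: peak Fluo-4 Ca2+ fluorescence, FLIPR. Stable CHO K1 hB1R or rB1R cells; cpd 10 μM, 10 min preincubation, then agonist (hB1R: Lys-Des-Arg9-BK 0.5 nM; rB1R: Des-Arg9-BK 100 nM). Value = % inhibition relative to maximal achievable inhibition.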

In experiment [2] the target is T2, human B1R receptor (Homo sapiens, UniProt P46663).
T2 construct: host or cells: CHO K1 cells (Chinese hamster ovary), stably transfected
T2 sequence (P46663 1-353): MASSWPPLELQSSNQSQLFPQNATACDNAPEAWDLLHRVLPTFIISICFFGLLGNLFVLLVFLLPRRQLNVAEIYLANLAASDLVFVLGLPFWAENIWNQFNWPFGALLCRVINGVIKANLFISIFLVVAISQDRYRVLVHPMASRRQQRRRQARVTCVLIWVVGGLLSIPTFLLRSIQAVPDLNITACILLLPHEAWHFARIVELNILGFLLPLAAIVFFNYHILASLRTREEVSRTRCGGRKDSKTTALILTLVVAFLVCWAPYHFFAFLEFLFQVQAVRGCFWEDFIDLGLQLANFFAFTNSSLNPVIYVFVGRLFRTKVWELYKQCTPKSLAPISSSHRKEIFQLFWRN
In words: Functional study on the bradykinin receptor 1 (B1R), FLIPR Ca2+ assay, hB1R cells. The class given is cell-based. To be noted: agonist Lys-Des-Arg9-bradykinin 0.5 nM, % inhibition compared with the maximum achievable inhibition; for B1R Antagonism, human [10 μM] % Inhibition: test substance 10 μM, hB1R CHO K1 cells; for inhibition at 10 µM: CHO-K1, test substance 10 μM, read-out: B1R Antagonism, human [10 μM] % Inhibition. In outline:
as §1

Regarding “N-(4-(2-(1H-benzo[d]imidazol-2-yl)ethyl)phenyl)-2-((1-(4-methoxy-2,6-dimethylphenylsulfonyl)pyrrolidin-2-yl)methoxy)acetamide [Example 472]”, the “B1R Antagonism, rat [10 μM] % Inhibition” value in experiment [1] is 101.17%. Further, the “B1R Antagonism, human [10 μM] % Inhibition” value in experiment [2] amounted to 92.06%.
Turning to `COc1cc(C)c(S(=O)(=O)N2CCCC2COCC(=O)NCC(c2ccc(C(F)(F)F)cc2)N2CCCC2)c(C)c1` (centres unmarked) [Example 496, 2-((1-(4-methoxy-2,6-dimethylphenylsulfonyl)pyrrolidin-2-yl)methoxy)-N-(2-(pyrrolidin-1-yl)-2-(4-(trifluoromethyl)phenyl)ethyl)acetamide], the inhibition – broadly, the drop in the measured response relative to a control, in per cent – at 10 µM in experiment [1] amounted to 103%; in experiment [2] it was 68.2%.
Take `Cc1cc(Br)cc(C)c1S(=O)(=O)N1CCCCC1COCC(=O)N1CCN(C2CCN(C)CC2)CC1` (centres unmarked) [Example 148, 2-((1-(4-bromo-2,6-dimethylphenylsulfonyl)piperidin-2-yl)methoxy)-1-(4-(1-methylpiperidin-4-yl)piperazin-1-yl)ethanone]: the inhibition at 10 µM in experiment [1] and in experiment [2] was 100% throughout.
For the molecule `COc1cc(C)c(S(=O)(=O)N2CCCC2COCC(=O)N2CCN(Cc3ccc(Br)cc3)CC2)c(C)c1` (centres unmarked) [Example 350, 1-(4-(4-bromobenzyl)piperazin-1-yl)-2-((1-(4-methoxy-2,6-dimethylphenylsulfonyl)pyrrolidin-2-yl)methoxy)ethanone], the inhibition at 10 µM in experiment [1] and in experiment [2] was 104% in each case.
For the molecule `CN(C)CCCN1CCN(C(=O)COCC2CCCN2S(=O)(=O)c2ccc(Cl)c(Cl)c2)CC1` (centres unmarked) [Example 88, 2-[1-(3,4-dichloro-phenylsulfonyl)-pyrrolidin-2-ylmethoxy]-1-[4-(3-dimethylamino-propyl)-piperazin-1-yl]-ethanone], the inhibition at 10 µM in experiment [1] turned out to be 7.33%; in experiment [2], 42.1%.
On the same counts, the results for `CCN1CCN(CCCNC(=O)COCC2CCCCN2S(=O)(=O)c2c(C)cc(OC)cc2C)CC1` (centres unmarked) [Example 412, N-(3-(4-ethylpiperazin-1-yl)propyl)-2-((1-(4-methoxy-2,6-dimethylphenylsulfonyl)piperidin-2-yl)methoxy)acetamide] are 103% and 101%.
In the case of `COc1cc(C)c(S(=O)(=O)N2CCCCC2COCC(=O)Nc2ccncn2)c(C)c1` (centres unmarked) [Example 372, 2-((1-(4-methoxy-2,6-dimethylphenylsulfonyl)piperidin-2-yl)methoxy)-N-(pyrimidin-4-yl)acetamide], the inhibition at 10 µM in experiment [1] was 83.8%; in experiment [2], -2.76%.
Take `COc1cc(C)c(S(=O)(=O)N2CCCCC2COCC(=O)N(C)CCC2CCC(N(C)C)CC2)c(C)c1` (centres unmarked) [Example 209, N-(2-(4-(dimethylamino)cyclohexyl)ethyl)-2-((1-(4-methoxy-2,6-dimethylphenylsulfonyl)piperidin-2-yl)methoxy)-N-methylacetamide]: the inhibition at 10 µM in experiment [1] turned out to be 99.9%; in experiment [2], 104%.
Regarding `COc1cc(C)c(S(=O)(=O)N2CCCCC2COCC(=O)Nc2[nH]ncc2-c2ccc(OC)c(OC)c2)c(C)c1` (centres unmarked) [Example 538, N-(4-(3,4-dimethoxyphenyl)-1H-pyrazol-5-yl)-2-((1-(4-methoxy-2,6-dimethylphenylsulfonyl)piperidin-2-yl)methoxy)acetamide], the inhibition at 10 µM in experiment [1] was 106%; in experiment [2], -11.8%.
On the same counts, the results for `CN(C(=O)COCC1Cc2ccccc2CN1S(=O)(=O)c1ccc(Cl)cc1Cl)C1CCN(Cc2ccccc2)C1` (centres unmarked) [Example 78, N-(1-benzyl-pyrrolidin-3-yl)-2-[2-(2,4-dichloro-phenylsulfonyl)-1,2,3,4-tetrahydro-isoquinolin-3-ylmethoxy]-N-methyl-acetamide] are 35.2% and 45.7%.
In the case of `CN(C)c1ccc(C2CCCN2C(=O)COCC2CCCCN2S(=O)(=O)c2c(Cl)cccc2Cl)cc1` (centres unmarked) [Example 528, 2-((1-(2,6-dichlorophenylsulfonyl)piperidin-2-yl)methoxy)-1-(2-(4-(dimethylamino)phenyl)pyrrolidin-1-yl)ethanone], the values for the inhibition at 10 µM in experiment [1] and in experiment [2] were 102% and 88.2%, respectively.
Take `COc1cc(C)c(S(=O)(=O)N2CCCC2COCC(=O)N(C)C(CN2CCOCC2)c2ccccc2)c(C)c1` (centres unmarked) [Example 304, 2-((1-(4-methoxy-2,6-dimethylphenylsulfonyl)pyrrolidin-2-yl)methoxy)-N-methyl-N-(2-morpholino-1-phenylethyl)acetamide]: the inhibition at 10 µM in experiment [1] was 102%; in experiment [2], 71.1%.
Turning to `COc1cc(C)c(S(=O)(=O)N2Cc3ccccc3C[C@H]2COCC(=O)N2CCC(CCN3CCCC3)CC2)c(C)c1` [Example 187, (S)-2-((2-(4-methoxy-2,6-dimethylphenylsulfonyl)-1,2,3,4-tetrahydroisoquinolin-3-yl)methoxy)-1-(4-(2-(pyrrolidin-1-yl)ethyl)piperidin-1-yl)ethanone], the inhibition at 10 µM in experiment [1] turned out to be 102%; in experiment [2], 100%.
For `COc1cc(C)c(S(=O)(=O)N2CCC[C@H]2COCC(=O)N2CCN(C3CCN(C)CC3)CC2)c(C)c1` [Example 180, (S)-2-((1-(4-methoxy-2,6-diimethylphenylsulfonyl)pyrrolidin-2-yl)methoxy)-1-(4-(1-methylpiperidin-4-yl)piperazin-1-yl)ethanone], in experiment [1], the “B1R Antagonism, rat [10 μM] % Inhibition” value amounted to 98.6%. Further, the “B1R Antagonism, human [10 μM] % Inhibition” value in experiment [2] was determined as 104%.
`O=C(COCC1CCCCN1S(=O)(=O)c1ccc(Br)cc1)N1CCC(CCN2CCCC2)CC1` (centres unmarked) [Example 125, 2-((1-(4-bromophenylsulfonyl)piperidin-2-yl)methoxy)-1-(4-(2-(pyrrolidin-1-yl)ethyl)piperidin-1-yl)ethanone]: the inhibition at 10 µM came to 95.4% in experiment [1] and 50.6% in experiment [2].
Regarding `COc1cc(C)c(S(=O)(=O)N2CCCCC2COCC(=O)N(CCN(C)C)Cc2ccccc2)c(C)c1` (centres unmarked) [Example 377], the “B1R Antagonism, rat [10 μM] % Inhibition” value in experiment [1] was found to be 99.56%. Moreover, the “B1R Antagonism, human [10 μM] % Inhibition” value in experiment [2] stood at 87.21%.
`COc1cc(C)c(S(=O)(=O)N2CCCCC2COCC(=O)N2CCC(N3CCn4cccc4C3)CC2)c(C)c1` (centres unmarked) [Example 211, 1-(4-(3,4-dihydropyrrolo[1,2-a]pyrazin-2(1H)-yl)piperidin-1-yl)-2-((1-(4-methoxy-2,6-dimethylphenylsulfonyl)piperidin-2-yl)methoxy)ethanone]: the inhibition at 10 µM in experiment [1] was determined as 100%; in experiment [2] it was 106%.
As to `COc1cc(C)c(S(=O)(=O)N2CCCC2COCC(=O)NCc2ccc(CN(C)C)cc2)c(C)c1` (centres unmarked) [Example 35, N-(4-dimethylaminomethyl-benzyl)-2-[1-(4-methoxy-2,6-dimethyl-phenylsulfonyl)-pyrrolidin-2-ylmethoxy]-acetamide], the figures for the inhibition at 10 µM in experiment [1] and in experiment [2] were 99% and 79.7%, respectively.
As to `O=C(COCC1CCCCN1S(=O)(=O)c1cccc2ccccc12)NCC1CCCN(Cc2ccccc2)C1` (centres unmarked) [Example 34, N-(1-benzyl-piperidin-3-ylmethyl)-2-[1-(naphthyl-1-sulfonyl)-piperidin-2-ylmethoxy]-acetamide], the “B1R Antagonism, rat [10 μM] % Inhibition” value in experiment [1] came to 39.48%. For the same molecule, the “B1R Antagonism, human [10 μM] % Inhibition” value in experiment [2] amounted to 79.9%.
Turning to `CN1CCC(N2CCN(C(=O)COCC3CCCCN3S(=O)(=O)c3c(Cl)cc(Cl)cc3Cl)CC2)CC1` (centres unmarked) [Example 118, 1-(4-(1-methylpiperidin-4-yl)piperazin-1-yl)-2-((1-(2,4,6-trichlorophenylsulfonyl)piperidin-2-yl)methoxy)ethanone], the inhibition at 10 µM in experiment [1] was 102%; in experiment [2], 104%.
For `O=C(COCC1CCCCN1S(=O)(=O)c1c(Cl)cc(Cl)cc1Cl)NCc1ccc(CN2CCOCC2)cc1` (centres unmarked) [Example 30, N-(4-morpholin-4-ylmethyl-benzyl)-2-[1-(2,4,6-trichloro-phenylsulfonyl)-piperidin-2-ylmethoxy]-acetamide], the inhibition at 10 µM in experiment [1] turned out to be 108%; in experiment [2], 84%.
For `COc1cc(C)c(S(=O)(=O)N2CCCCC2COCC(=O)N2CCN(C(=O)OC(C)(C)C)CC2)c(C)c1` (centres unmarked) [Example 101, tert-butyl 4-(2-((1-(4-methoxy-2,6-dimethylphenylsulfonyl)piperidin-2-yl)methoxy)acetyl)piperazin-1-carboxylate], in that order: 100% and 100%.

These data come from patent US8435978B2, “Substituted sulfonamide compounds” (Gruenenthal GmbH, priority 2006, dated 2013).
